{
  "source": "paper PMC3466466",
  "about": "“Taltirelin is a superagonist at the human thyrotropin-releasing hormone receptor” (Frontiers in Endocrinology, 2012)",
  "key": {"[1]": {"biological_target": "T1, TRH-R (human TRH receptor) (Homo sapiens, UniProt P34981)", "T1 construct": "gene TRHR; full-length human cDNA subcloned into pcDNA3.1(+)/hygromycin; stably expressed in HEK-EM 293 cells, 16,000 receptors/cell", "T1 sequence (P34981 1-398)": "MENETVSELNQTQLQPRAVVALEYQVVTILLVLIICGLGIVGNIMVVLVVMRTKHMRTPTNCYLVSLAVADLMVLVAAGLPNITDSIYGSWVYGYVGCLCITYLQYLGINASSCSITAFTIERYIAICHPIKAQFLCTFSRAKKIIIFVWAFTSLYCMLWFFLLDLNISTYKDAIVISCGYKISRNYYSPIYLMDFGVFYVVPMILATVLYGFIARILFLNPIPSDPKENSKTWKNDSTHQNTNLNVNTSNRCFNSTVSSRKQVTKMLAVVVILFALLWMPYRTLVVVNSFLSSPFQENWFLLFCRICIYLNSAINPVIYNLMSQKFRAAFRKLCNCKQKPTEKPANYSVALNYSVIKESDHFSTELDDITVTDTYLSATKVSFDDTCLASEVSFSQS", "experiment": "intracellular Ca2+ release, calcium […] dye, FLIPR", "format": "cell-based", "conditions": "read-out: EC50 for Ca signaling"}, "[2]": {"biological_target": "T1, TRH-R (human TRH receptor)", "experiment": "[3H]MeTRH competition binding, intact HEK-EM […] cells", "format": "cell-based"}},
  "data": [
    {"smiles": "CN1C(=O)C[C@@H](C(=O)N[C@@H](Cc2c[nH]cn2)C(=O)N2CCC[C@H]2C(N)=O)NC1=O", "note": "[TAL, N-[[(4S)-Hexahydro-1-methyl-2,6-dioxo-4-pyrimidinyl]carbonyl]-L-histidyl-L-prolinamide]", "values": [
      {"measurement": "EC50", "setting": "[1]", "result": 36, "unit": "nM"},
      {"measurement": "IC50", "setting": "[2]", "result": 910, "unit": "nM"}
    ]}
  ]
}
